What follows are molecules tested against T1, human vasopressin V2 receptor subtype (Homo sapiens, UniProt P30518) (assay: Vasopressin binding in CHO cell membranes expressing human vasopressin V2 subtype receptors ([3H]arginine vasopressin radioligand binding)). Conditions: 100 nM.
T1 construct: host or cells: CHO cells, stably transfected (pZeoSV vector)
Method: Vasopressin Binding in Chinese Hamster Ovary Cell Membranes Expressing Human Vasopressin V2 Subtype Receptors
Chinese Hamster Ovary (CHO) cells stably transfected with the human V2 subtype receptors were obtained from M. Thibonnier, Case Western Reserve University School of Medicine, Cleveland, Ohio.
The trypsin is removed by aspiration and the cells dislodged by tapping. Cell Culture medium (e.g. 30 mL for 1:30 split) is immediately added and mixed well to inactivate trypsin. 1 mL of detached cells is added to new culture flasks containing fresh Cell Culture medium (e.g. into 25 mL per T-150 flask), and mixed gently. The cells are incubated at 37° C. in 5% CO2. The medium is changed at 3 to 4 day interval (or as appropriate). […] All steps are done under sterile conditions.
The cells are washed twice gently with Hank's Balanced Salt solution (e.g. use 10 mL per T-150 flask). […] The contents are transferred to centrifuge tubes (50 mL) kept in ice bath. All subsequent steps are done at 4° C. The tubes are centrifuged at 300×g for 15 min (1380 rpm on SORVAL, Model RT6000D, using the rotor for 50 mL tubes). The supernatant is discarded and the cells suspended in homogenizing buffer(10 mM Tris-HCl containing 0.25 M sucrose and 1 mM EDTA, pH 7.4) ensuring that the volume of the buffer is about ten times the volume of the cell pellet. The cells are pooled into a centrifuge tube (50 mL) and homogenized with Polytron at setting 6 for 10 sec. The homogenate is transferred into a Potter-Elvjehm homogenizer and homogenized with 3 strokes. The homogenate is centrifuged at 1500×g for 60 min at 4° C. (3100 rpm using SORVAL, model RT6000D, using the rotor for 50 mL tubes). The pellet is discarded. The supernatant is centrifuged at 100,000×g for 60 min. at 4° C. (Beckman L8-80M ultracentrifuge; spin at 37,500 rpm with rotor type 70 Ti for 50 mL tubes; 38,000 rpm with type 80Ti for 15 mL tubes; or 35,800 rpm with rotor type 45Ti). The supernantant is discarded and the pellet suspended in 3 to 4 mL of Tris buffer (50 mM TRIS-HCl, pH 7.4). The protein content is estimated by the Bradford or Lowry method. The volume of the membrane suspension is adjusted with the membrane buffer (50 mM Tris-HCl containing 0.1% BSA and 0.1 mM PMSF) to give 3.0 mg/mL (or as appropriate) of protein. The membranes are aliquoted and stored at −70° C.
In wells of a 96-well format microtiter plate, is added 90, 110 or 130 μL (to make up a final volume of 200 μL) of assay buffer containing 50 mM of Tris-HCl (pH 7.4), […], 1 mg % aprotinin, 1 mg % leupeptin, 2 mg % 1,10-phenanthroline, 10 mg % trypsin inhibitor, and 0.1 mM PMSF. The inhibitors are added on the day of the experiment. The components are mixed at room temperature, and then kept in ice bath following adjustment of the pH to 7.4. […] For vasopressin and other peptide ligands 20 μL of 50% DMSO is added and the assay buffer volume is adjusted accordingly. To each well is added 50 μL of frozen membrane suspension thawed immediately prior to use and diluted in assay buffer to the required concentration (equivalent to 25 to 50 μg of protein/well as needed). 20 μL of 8 nM [^3H]arginine vasopressin ligand in the assay buffer, prepared just before use is added and incubated at room temperature for 60 min. shaking the plate on a mechanical shaker for the first 15 min. The incubation is stopped by rapid filtration of the plate contents followed by wash with ice-cold buffer (50 mM Tris-HCl, pH 7.4) using a cell harvester (Tomtek and Printed filtermat-B filter paper). The filter paper is thoroughly dried (7–12 min. in a microwave oven) and impregnated with MeltiLex B/H melt-on scintillation wax sheets and the radioactivity counted in a betaplate scintillation counter.
Binding data is either reported as percent inhibition at a certain concentration or if an IC50 was calculated, as a nanomolar concentration.

T1 sequence (P30518 whole entry): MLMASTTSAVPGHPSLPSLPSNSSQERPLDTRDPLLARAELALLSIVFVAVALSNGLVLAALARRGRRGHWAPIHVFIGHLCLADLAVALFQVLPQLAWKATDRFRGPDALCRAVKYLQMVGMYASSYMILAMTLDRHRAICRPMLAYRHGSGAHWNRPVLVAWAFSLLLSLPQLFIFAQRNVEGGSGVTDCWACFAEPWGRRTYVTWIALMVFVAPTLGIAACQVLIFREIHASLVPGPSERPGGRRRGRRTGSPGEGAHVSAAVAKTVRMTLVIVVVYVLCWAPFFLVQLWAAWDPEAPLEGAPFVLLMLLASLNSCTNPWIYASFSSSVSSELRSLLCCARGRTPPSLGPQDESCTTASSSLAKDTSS

**Q.** `COc1cc(C(=O)N2Cc3ccc(C(=O)N(C)Cc4cccnc4)n3Cc3ccccc32)ccc1-c1ccccc1C` [Example 106, 10-[(2-Methoxy-2′-methyl-[1,1′-biphenyl]-4-yl)carbonyl]-N-methyl-N-(3-pyridinylmethyl)-10,11-dihydro-5H-pyrrolo[2,1-c][1,4]benzodiazepine-3-carboxamide] was tested. Which inhibition at 0.1 µM did it give?
**A.** -10%

**Q.** How did the inhibition at 0.1 µM turn out when `COc1cc(-c2ccccc2C)c(Cl)cc1C(=O)N1Cc2ccc(C(=O)N(C)Cc3cccnc3)n2Cc2ccccc21` [Example 107, 10-[(6-Chloro-3-methoxy-2′-methyl-[1,1′-biphenyl]-4-yl)carbonyl]-N-methyl-N-(3-pyridinylmethyl)-10,11-dihydro-5H-pyrrolo[2,1-c][1,4]benzodiazepine-3-carboxamide] was run?
**A.** 30%

**Q.** With `COc1cccc(-c2cc(OC)c(C(=O)N3Cc4ccc(C(=O)N(C)Cc5cccnc5)n4Cc4ccccc43)cc2Cl)c1` [Example 108, 10-[(6-Chloro-3,3′-dimethoxy-[1,1′-biphenyl]-4-yl)carbonyl]-N-methyl-N-(3-pyridinylmethyl)-10,11-dihydro-5H-pyrrolo[2,1-c][1,4]benzodiazepine-3-carboxamide] as the molecule, how does the inhibition at 0.1 µM read?
**A.** 24%

**Q.** Which inhibition at 0.1 µM does the source give for `COc1cc(C(=O)N2Cc3ccc(C(=O)N(C)Cc4cccnc4)n3Cc3ccccc32)ccc1-c1cccc2ccccc12` [Example 109, 10-[3-Methoxy-4-(naphthalen-1-yl)benzoyl]-N-methyl-N-(3-pyridinylmethyl)-10,11-dihydro-5H-pyrrolo[2,1-c][1,4]benzodiazepine-3-carboxamide] here?
**A.** 0%

**Q.** With `COc1cccc(-c2ccc(C(=O)N3Cc4ccc(C(=O)N(C)Cc5cccnc5)n4Cc4ccccc43)cc2OC)c1` [Example 110] as the molecule, how does the “V2 % inhibition @ 100 nM” value read?
**A.** 32%

**Q.** Which inhibition at 0.1 µM does the source give for `CN(Cc1cccnc1)C(=O)c1ccc2n1Cc1ccccc1N(C(=O)c1ccc(-c3cccc4ccccc34)cc1Cl)C2` [Example 111, 10-[2-Chloro-4-(naphthalen-1-yl)benzoyl]-N-methyl-N-(3-pyridinylmethyl)-10,11-dihydro-5H-pyrrolo[2,1-c][1,4]benzodiazepine-3-carboxamide] here?
**A.** 23%

**Q.** For `Cc1ccccc1-c1ccc(C(=O)N2Cc3ccc(C(=O)N4CCN(c5ccncc5)CC4)n3Cc3ccccc32)cc1C` [Example 114, {10-[(2,2′-Dimethyl-[1,1′-biphenyl]-4-yl)carbonyl]-10,11-dihydro-5H-pyrrolo[2,1-c][1,4]benzodiazepin-3-yl}[4-(4-pyridinyl)-1-piperazinyl]methanone], which inhibition at 0.1 µM is on record?
**A.** 18%

**Q.** How did the inhibition at 0.1 µM turn out when `COc1cccc(-c2ccc(C(=O)N3Cc4ccc(C(=O)N5CCN(c6ccncc6)CC5)n4Cc4ccccc43)cc2C)c1` [Example 115, {10-[(3′-Methoxy-2-methyl-[1,1′-biphenyl]-4-yl)carbonyl]-10,11-dihydro-5H-pyrrolo[2,1-c][1,4]benzodiazepin-3-yl}[4-(4-pyridinyl)-1-piperazinyl]methanone] was run?
**A.** 8%

**Q.** `COc1ccccc1-c1ccc(C(=O)N2Cc3ccc(C(=O)N4CCN(c5ccncc5)CC4)n3Cc3ccccc32)cc1` [Example 116, {10-[(2′-Methoxy-[1,1′-biphenyl]-4-yl)carbonyl]-10,11-dihydro-5H-pyrrolo[2,1-c][1,4]benzodiazepin-3-yl}[4-(4-pyridinyl)-1-piperazinyl]methanone] was tested. Which inhibition at 0.1 µM did it give?
**A.** 63%

**Q.** How did the inhibition at 0.1 µM turn out when `Cc1ccccc1-c1ccc(C(=O)N2Cc3ccc(C(=O)N4CCN(c5ccncc5)CC4)n3Cc3ccccc32)cc1` [Example 117, {10-[(2′-Methyl-[1,1′-biphenyl]-4-yl)carbonyl]-10,11-dihydro-5H-pyrrolo[2,1-c][1,4]benzodiazepin-3-yl}[4-(4-pyridinyl)-1-piperazinyl]methanone] was run?
**A.** 4%

**Q.** For `COc1cc(C(=O)N2Cc3ccc(C(=O)N4CCN(c5ccncc5)CC4)n3Cc3ccccc32)ccc1-c1ccccc1C` [Example 118], which “V2 % inhibition @ 100 nM” value is on record?
**A.** −10%

**Q.** For `COc1cc(-c2ccccc2C)c(Cl)cc1C(=O)N1Cc2ccc(C(=O)N3CCN(c4ccncc4)CC3)n2Cc2ccccc21` [Example 119, {10-[(6-Chloro-3-methoxy-2′-methyl-[1,1′-biphenyl]-4-yl)carbonyl]-10,11-dihydro-5H-pyrrolo[2,1-c][1,4]benzodiazepin-3-yl}[4-(4-pyridinyl)-1-piperazinyl]methanone], which inhibition at 0.1 µM is on record?
**A.** 17%

**Q.** Which inhibition at 0.1 µM does the source give for `COc1cccc(-c2cc(OC)c(C(=O)N3Cc4ccc(C(=O)N5CCN(c6ccncc6)CC5)n4Cc4ccccc43)cc2Cl)c1` [Example 120, {10-[(6-Chloro-3,3′-dimethoxy-[1,1′-biphenyl]-4-yl)carbonyl]-10,11-dihydro-5H-pyrrolo[2,1-c][1,4]benzodiazepin-3-yl}[4-(4-pyridinyl)-1-piperazinyl]methanone] here?
**A.** 16%

**Q.** For `COc1cc(C(=O)N2Cc3ccc(C(=O)N4CCN(c5ccncc5)CC4)n3Cc3ccccc32)ccc1-c1cccc2ccccc12` [Example 121, {10-[3-Methoxy-4-(naphthalen-1-yl)benzoyl]-10,11-dihydro-5H-pyrrolo[2,1-c][1,4]benzodiazepin-3-yl}[4-(4-pyridinyl)-1-piperazinyl]methanone], which inhibition at 0.1 µM is on record?
**A.** -4%

**Q.** For `COc1ccccc1-c1ccc(C(=O)N2Cc3ccc(C(=O)N4CCN(c5ccncc5)CC4)n3Cc3ccccc32)cc1OC` [Example 122, {10-[(2,2′-Dimethoxy-[1,1′-biphenyl]-4-yl)carbonyl]-10,11-dihydro-5H-pyrrolo[2,1-c][1,4]benzodiazepin-3-yl}[4-(4-pyridinyl)-1-piperazinyl]methanone], which inhibition at 0.1 µM is on record?
**A.** -10%

**Q.** How did the inhibition at 0.1 µM turn out when `COc1cccc(-c2ccc(C(=O)N3Cc4ccc(C(=O)N5CCN(c6ccncc6)CC5)n4Cc4ccccc43)cc2OC)c1` [Example 123, {10-[(2,3′-Dimethoxy-[1,1′-biphenyl]-4-yl)carbonyl]-10,11-dihydro-5H-pyrrolo[2,1-c][1,4]benzodiazepin-3-yl}[4-(4-pyridinyl)-1-piperazinyl]methanone] was run?
**A.** 30%

**Q.** How did the inhibition at 0.1 µM turn out when `O=C(c1ccc2n1Cc1ccccc1N(C(=O)c1ccc(-c3cccc4ccccc34)cc1Cl)C2)N1CCN(c2ccncc2)CC1` [Example 124, {10-[2-Chloro-4-(naphthalen-1-yl)benzoyl]-10,11-dihydro-5H-pyrrolo[2,1-c][1,4]benzodiazepin-3-yl}[4-(4-pyridinyl)-1-piperazinyl]methanone] was run?
**A.** 18%

**Q.** `COc1ccccc1-c1ccc(C(=O)N2Cc3ccc(C(=O)N(C)CCc4ccncc4)n3Cc3ccccc32)cc1OC` [Example 125, 10-[(2,2′-Dimethoxy-[1,1′-biphenyl]-4-yl)carbonyl]-N-methyl-N-[2-(4-pyridinyl)ethyl]-10,11-dihydro-5H-pyrrolo[2,1-c][1,4]benzodiazepine-3-carboxamide] was tested. Which inhibition at 0.1 µM did it give?
**A.** -10%

**Q.** With `COc1ccccc1-c1ccc(C(=O)N2Cc3ccc(C(=O)N(C)CCc4ccncc4)n3Cc3ccccc32)cc1C` [Example 126, 10-[(2′-Methoxy-2-methyl-[1,1′-biphenyl]-4-yl)carbonyl]-N-methyl-N-[2-(4-pyridinyl)ethyl]-10,11-dihydro-5H-pyrrolo[2,1-c][1,4]benzodiazepine-3-carboxamide] as the molecule, how does the inhibition at 0.1 µM read?
**A.** 5%

**Q.** Which inhibition at 0.1 µM does the source give for `Cc1ccccc1-c1ccc(C(=O)N2Cc3ccc(C(=O)N(C)CCc4ccncc4)n3Cc3ccccc32)cc1C` [Example 127, 10-[(2,2′-Dimethyl-[1,1′-biphenyl]-4-yl)carbonyl]-N-methyl-N-[2-(4-pyridinyl)ethyl]-10,11-dihydro-5H-pyrrolo[2,1-c][1,4]benzodiazepine-3-carboxamide] here?
**A.** 15%
